# Assay results: US20180312539A1, “METHODS FOR PREPARING HIGH THROUGHPUT PEPTIDOMIMETICS, ORALLY BIOAVAILABLE DRUGS AND COMPOSITIONS CONTAINING SAME” (University of Southern California, priority 2011, published 2018)
# Experiments:
# proteinase K = proteinase K (Parengyodontium album, UniProt P06873)
# Procedure: Immobilized chymotrypsin and proteinase K purchased from Sigma. 250 nmoles of peptide in DMSO were added to 50 mM sodium phosphate buffer (pH=8.0) with a final DMSO concentration of 2%. […] The graph was generated by fitting the data to a one phase exponential decay equation (GraphPad Prism 5.0).
# Protease resistance enhancement was then tested. The simplest solution for enhancing protease resistance would be the removal of amino acids recognized by protease K and chymotrypsin.
# Next the role of each of the N-methyl alanines was analyzed independently. […] For example sequence modifications, including N-methylation would be accomplished one amino acid at a time, walking the peptide from low protease stability to high stability. Whether this is a viable approach for making a peptide like SUPR was investigated. Towards that end, Applicants walked back from SUPR peptide to something closer to cycGIBP, and to determine if there was a gradual decrease in protease resistance. Towards that end, three peptides were synthesized. Two of them contained only one NMA (alanine was substituted for NMA), and the other had no NMA. It was hypothesized that if one could walk back to cycGIBP, then one would expect the loss of a single N-methyl to have some effect on reducing protease resistance, but to still be better than cycGIBP.
# Human microsome digests = type: in vitro ADME
# Procedure: Pooled, mixed gender human microsomes containing cytochrome P450's were obtained from Xenotech. 100 μL of microsomes were added to 500 of PBS buffer containing 250 nmoles of peptide with 1% DMSO. 50 μL aliquots were removed at various time points and worked up in the same manner as the human serum digests.
# Another vital area for the in vivo processing of drugs is the liver. All blood is eventually filtered through the liver, where various types of enzymes functionalize drugs for the purpose of excretion. […] These enzymes are largely involved in the oxidation of drugs, and can be found on the […]. Human liver microsomes are functional liver extract containing cytochrome P450s. Therefore half-life of modification of peptides by cytochrome P450s from exposure to human microsomes was examined. The results were similar to the human serum result in that both cyclization and N-methylation were necessary for significant enhancement of resistance to modification. […] This is interesting because the trait of protease resistance, not resistance to cytochrome P450 modification was a selection criteria.
# A similar experiment was performed analyzing protease resistance to cytochrome P450 degradation. Peptide was incubated with human liver microsomes at 37° C. All peptides were highly protease resistant. […]
# Gαi1 = target: T1, Gαi1 (Homo sapiens, UniProt P63096); experiment: TNT pulldown specificity analysis with radiolabeled Gα subunits; type: binding; details: C-terminally biotinylated peptide on NeutrAvidin-agarose
# T1 construct: made in house; host or cells: TNT (coupled in vitro transcription/translation), radiolabeled
# T1 sequence (P63096 whole entry): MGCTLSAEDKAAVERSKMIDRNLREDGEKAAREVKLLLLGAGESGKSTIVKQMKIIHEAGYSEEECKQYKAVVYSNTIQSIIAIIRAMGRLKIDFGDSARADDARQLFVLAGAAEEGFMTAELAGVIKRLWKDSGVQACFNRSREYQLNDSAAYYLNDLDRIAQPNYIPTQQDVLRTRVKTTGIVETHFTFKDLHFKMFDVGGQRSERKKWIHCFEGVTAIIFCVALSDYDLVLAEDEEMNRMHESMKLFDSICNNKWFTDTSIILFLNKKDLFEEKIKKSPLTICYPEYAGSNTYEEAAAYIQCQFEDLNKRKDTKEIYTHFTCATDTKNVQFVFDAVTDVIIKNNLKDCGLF
# Procedure: TNT pulldown experiments were carried out as previously described in Stoop and Craik (2003) Nat. Biotech 21:1063. […] Control NeutrAvidin-agarose was treated with DMSO alone. Binding reactions proceeded for 1 h at 4° C. followed by filtration and washing with 1× selection buffer. The matrix was analyzed by scintillation counting, and the percent bound was determined by the matrix counts divided by the total counts as determined by TCA precipitation. […] The peptide was immobilized on NeutrAvidin-agarose and used to pull down radiolabeled protein. […] This was true both for specificity within the Gα family as well as state specificity of Gαi1. In fact, there was a small enhancement of specificity for the target Gαi1 over a protein with nearly 85% sequence similarity, Gαi2. […] The ability to retain or enhance selectivity for a desired target is of tremendous importance for therapeutic and diagnostic development.
# chymotrypsin = target: T2, chymotrypsin (Bos taurus, UniProt P00766); experiment: Basic kinetic study with chymotrypsin (Km, Vmax); type: biochemical; details: relative to cycGIBP
# T2 construct: purchased Sigma
# Excerpt: Crystal structures of serine proteases such as chymotrypsin and proteinase K show a hydrogen bonding network from the protease to the backbone of their substrate at four amino acid positions. Applicants postulated that N-methylation would result in a steric clash between the substrate and protease, thereby inhibiting the ability of the protease to bind to the peptide. In enzyme kinetic terms, this would result in an enhancement of Km. Additionally, several experiments have shown that proteases such as chymotrypsin, will not cut all of their predicted digest sites equally. It has long been observed that secondary structure will have an effect on proteolysis of a protein. However, there are now several independent examples of peptides with, with no predicted secondary structure that have predicted protease digest sites that are not proteolyzed. Applicants suspect that there may be some local sequence context that is inhibitor for proteolysis. This sequence context may either make it harder for the protease to bind its substrate (Km), or it may make it more difficult for the protease to perform catalysis on the substrate (Vmax). To investigate the origin of these enhancements, Applicants conducted a basic kinetic study with chymotrypsin. Proteinase K digested GIBP too quickly for this type of analysis but could be utilized in other systems and with other peptides.
# [1] = mouse, iv
# Procedure: 200 μL of peptide was administered by IV injection into the tail vein of C57BL6 mice at a dose of 10 mg/kg. 50 μL blood samples were taken at various time points by orbital bleeding using heparin coated capillary tubes and isoflurane for anesthesia. Samples are diluted to 600 μLin TE buffer (pH=8.0) then filtered by centrifugation through a 3000 MWCO filter. The flowthrough was analyzed on a Shimadzu RF-5301 PC fluorometer. Time points were integrated and analyzed using Prism 5.0 software.
# To that end mice were administered peptide conjugated to fluorescein by IV injection into the tail vein. Blood samples were taken by orbital bleeding. Blood peptide concentration was determined by comparing fluorescence to a 15 minute time point.
# proteinase K, sequence (P06873 106-384): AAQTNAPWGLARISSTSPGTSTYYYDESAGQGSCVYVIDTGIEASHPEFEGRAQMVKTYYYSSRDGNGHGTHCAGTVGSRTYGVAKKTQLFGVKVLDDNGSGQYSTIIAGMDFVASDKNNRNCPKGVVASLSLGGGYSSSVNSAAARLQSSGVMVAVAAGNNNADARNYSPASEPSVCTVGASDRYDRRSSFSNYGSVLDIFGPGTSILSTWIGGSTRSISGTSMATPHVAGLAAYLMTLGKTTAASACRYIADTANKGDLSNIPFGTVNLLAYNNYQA
structure (smiles),measurement,setting,value
CSCC[C@@H]1NC(=O)CCCC(=O)NCCCC[C@@H](C(N)=O)NC(=O)[C@H](CO)NC(=O)[C@H](Cc2c[nH]c3ccccc23)NC(=O)[C@H](CCC(N)=O)NC(=O)[C@H](C)N(C)C(=O)[C@H](Cc2ccc(O)cc2)NC(=O)[C@H](CCC(=O)O)NC(=O)[C@H](Cc2ccc(O)cc2)NC(=O)[C@H](C)N(C)C(=O)[C@H](Cc2ccc(O)cc2)NC(=O)[C@H](Cc2ccccc2)NC1=O [cycSUPR],fold more resistant to proteinase K,proteinase K,approximately 5200 fold
same,digest sites found from proteinase K,proteinase K; seven theoretical digest sites,1
same,resistance to cytochrome P450 degradation,"Human microsome digests; human liver microsomes, 37° C (Experiment No. 4)",more preotease resistant than the Her-2 binding peptides
same,stability to human liver microsomes (cytochrome P450s),Human microsome digests; versus cycGIBP or linSUPR,nearly an order of magnitude increase in stability
same,specificity within the Gα family and state specificity of Gαi1,Gαi1,retained specificity of its parent molecule
same,Km and Vmax of chymotrypsin digestion,chymotrypsin,optimized for protease resistance relative to cycGIBP
same,fold increase in in vivo half-life over cycGIBP,[1],roughly 35 fold
